Assay: Partitioning of pure artemisinin between hexane and aqueous ethanol (1:1 v/v), layers quantified by TLC
Type: physicochemical
Protocol: To select an efficient solvent for extraction of artemisinin different solvents systems were tested. For this 10 g of dry powdered leaves of Artemisia annua were extracted with methanol, 20% aqueous methanol, ethanol, 20% aqueous ethanol or hexane as a solvent individually in separate tubes. 10 ml of the solvent was taken out of the tube at 2, 4 and 6 h of incubation. The fraction was evaporated to dryness on a water bath, extract was solubilized in 2.0 ml solvent and spots (5 μl) were loaded on a TLC plate along with pure artemisinin dissolved in the respective solvent @ 1 mg/ml taken as controls. The TLC was carried out in a glass TLC tank saturated with the mobile phase hexane:diethyl ether (1:1), plates were developed to a height of 15 cm. Later plates were dried and spots were visualized by immersing the plates in a developing reagent (glacial acetic acid:sulfuric acid:anisaldehyde, 50:1:0.5), followed by heating the plate at 110° C. for 15 minutes or until pink spots of artemisinin appeared. For quantification, TLC spots corresponding to artemisinin were scanned at 540 and 610 nm dual wavelength mode of TLC scanner. It is clear from the table that pure ethanol and methanol rapidly extract the artemisinin as compared to hexane, however after a certain period of time concentration of artemisinin starts diminishing in methanol and ethanol extracts in contrast to hexane extract possibly because of decomposition or transformation of artemisinin into another unknown compound. Mixing of water in methanol caused a severe decay of artemisinin extraction. Ethanol was more efficient for extracting more artemisinin in less time period as compared to methanol and hexane both. On the basis of lower cost and rapid extraction efficiency ethanol will be a suitable solvent.
Pure artemisinin (0.2 g) was dissolved in different test tubes containing 1:1 (v/v) mixture of two non-miscible solvents, hexane and aqueous ethanol (i.e. ethanol mixed in water), where concentration of ethanol varied from 20 to 80%. After completely solubilizing the artemisinin in the mixture, two layers of hexane and ethanol were separated with the help of a separating funnel. The individual layer from different test tube was tested for the presence of artemisinin content by TLC as in example 1. The results showing the % fraction of artemisinin partitioned between the hexane and aqueous ethanolic layers separated from each tube are given in the Table -2.

[1] = Hexane:20% aqueous-ethanol (1:1 v/v)
[2] = Hexane:40% aqueous-ethanol (1:1 v/v)
[3] = Hexane:60% aqueous-ethanol (1:1 v/v)
[4] = Hexane:80% aqueous-ethanol (1:1 v/v)

- % artemisinin in ethanol layer [1]: 100%
- % artemisinin in hexane layer [1]: 0%
- % artemisinin in ethanol layer [2]: 90%
- % artemisinin in hexane layer [2]: 10%
- % artemisinin in ethanol layer [3]: 30%
- % artemisinin in hexane layer [3]: 70%
- % artemisinin in ethanol layer [4]: 0%
- % artemisinin in hexane layer [4]: 100%
Compound: C[C@@H]1CC[C@H]2[C@@H](C)C(=O)O[C@@H]3O[C@@]4(C)CC[C@@H]1[C@]32OO4 [artemisinin]
